PubChem BioAssay AID1645866 (Buhrlage Lab, Dana-Farber Cancer Institute and Novartis …, 2021)
Activity calls are given as the source filed them.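 The calls were made as follows: active = in confirmatory dose-response testing, peak deubiquitinase inhibition of 30% or more; inactive = the rest.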

Molecular target: Ubiquitin carboxyl-terminal hydrolase 28 (Homo sapiens) (UniProt Q96RU2)
Assay: Concentration-response biochemical assay confirming initial hits as inhibitors of ubiquitin-specific protease 28 (AID 1645866)
Conditions: purified USP28, ubiquitin-rhodamine fluorescence, 30 min

Sequence of Ubiquitin carboxyl-terminal hydrolase 28 (Homo sapiens) (Q96RU2 whole entry, looked up): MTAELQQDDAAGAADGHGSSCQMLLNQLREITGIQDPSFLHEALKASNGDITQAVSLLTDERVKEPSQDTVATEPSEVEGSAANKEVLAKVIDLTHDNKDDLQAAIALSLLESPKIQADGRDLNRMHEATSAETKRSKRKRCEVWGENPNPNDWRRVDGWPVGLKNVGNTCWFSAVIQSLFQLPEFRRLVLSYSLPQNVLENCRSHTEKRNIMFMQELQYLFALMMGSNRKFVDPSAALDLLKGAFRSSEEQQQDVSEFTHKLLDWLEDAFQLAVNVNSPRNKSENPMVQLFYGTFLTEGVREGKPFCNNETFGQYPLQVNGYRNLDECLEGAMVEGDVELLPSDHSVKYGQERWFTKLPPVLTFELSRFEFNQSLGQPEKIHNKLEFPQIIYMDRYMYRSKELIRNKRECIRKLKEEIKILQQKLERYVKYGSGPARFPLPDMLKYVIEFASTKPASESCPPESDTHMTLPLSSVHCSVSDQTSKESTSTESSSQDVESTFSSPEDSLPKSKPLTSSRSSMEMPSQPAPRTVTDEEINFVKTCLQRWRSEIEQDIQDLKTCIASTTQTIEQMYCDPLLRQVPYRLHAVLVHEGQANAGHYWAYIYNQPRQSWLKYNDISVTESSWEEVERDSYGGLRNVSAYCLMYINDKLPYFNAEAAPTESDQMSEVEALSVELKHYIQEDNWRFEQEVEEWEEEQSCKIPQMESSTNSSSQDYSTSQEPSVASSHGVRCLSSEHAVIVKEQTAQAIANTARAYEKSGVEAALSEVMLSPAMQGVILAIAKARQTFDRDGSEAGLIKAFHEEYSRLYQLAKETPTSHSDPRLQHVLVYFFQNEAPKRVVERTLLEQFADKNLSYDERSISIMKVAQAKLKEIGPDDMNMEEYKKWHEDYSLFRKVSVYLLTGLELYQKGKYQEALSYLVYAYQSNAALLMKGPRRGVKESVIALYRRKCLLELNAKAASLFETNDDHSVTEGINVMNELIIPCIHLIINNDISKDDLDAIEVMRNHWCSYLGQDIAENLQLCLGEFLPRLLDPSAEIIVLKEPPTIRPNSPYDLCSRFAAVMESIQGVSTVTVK

Structure (SMILES) | IC50
CC(C)OC(=O)c1cc2c(ccn2C)n1CC(=O)N1CCN(C(=O)c2ccco2)CC1 | > 50 µM (inactive)
CCS(=O)(=O)c1ccccc1C(=O)Nc1ccc2sc(C)nc2c1 | 17.2 µM
COc1cccc(-c2cc(C(=O)Nc3cc(C)n(Cc4ccc(Cl)cc4)n3)no2)c1 | 40.5 µM
O=C(Cc1c[nH]c2ccccc12)Nc1nc2ccccc2s1 | 21.2 µM
CN1CCN(C(=O)c2cc(-c3ccn(-c4ccccc4)n3)n3ccccc23)CC1 | > 50 µM (inactive)
CC1CCN(S(=O)(=O)c2ccc(C(=O)Nc3ccc(S(N)(=O)=O)cc3)cc2)CC1 | 30.1 µM
O=C(Cc1ccc(Cl)c(Cl)c1)OCC(=O)c1c[nH]c2ccccc12 | > 50 µM (inactive)
COc1cc(C#N)c(NC(=NCc2ccc(F)cc2)SC)cc1OC | 22.5 µM
CCc1ccc2c(c1)[C@]1(C(=O)N2)[C@@H]2C(=O)N(c3ccc(Cl)cc3Cl)C(=O)[C@@H]2[C@@H]2CCCN21 | > 50 µM (inactive)
Cn1c(CCN2CCCC2)nc2cc(NS(=O)(=O)c3ccccc3)ccc21 | > 50 µM (inactive)
CCc1c(Cl)c(O)c(Cl)c(O)c1C(=O)O[C@H]1C(C)O[C@@H](OC/C2=C\C=C\CC(O)/C(C)=C/C(CC)C(O[C@@H]3OC(C)(C)[C@H](O)C(OC(=O)C(C)C)[C@@H]3O)/C(C)=C/C(C)=C/CC(C(C)O)OC2=O)[C@@H](OC)C1O (stereo partly drawn) | > 50 µM (inactive)
CC(=O)Nc1ccc(S(=O)(=O)NCc2ccc(C(=O)NCCc3ccc(Cl)cc3)cc2)cc1 | 1.77 µM
CCn1c(=N)n(CCOc2ccc(F)cc2)c2ccccc21 | 0.588 µM
CC1=C[C@H]2N(c3ccc(C)cc31)[C@H](C(=O)c1cccs1)[C@@H](C(=O)c1ccc(F)cc1)[C@]21C(=O)Nc2ccccc21 | > 50 µM (inactive)
CN(C)c1ccc(/C=N/NC(=O)c2ccc(Cl)cc2)cc1 | 16.7 µM
CC1CCCCN1c1nc(F)c2c(c1F)S(=O)(=O)CCN2Cc1ccccc1 (stereo not drawn) | > 50 µM (inactive)
CCc1ccc(-c2nc(SCC(=O)Nc3ccc4[nH]c(=O)[nH]c4c3)n[nH]2)cc1 | 23.5 µM
N#Cc1ccc(Cc2ncc(C(F)(F)F)cc2Cl)s1 | 8.21 µM
O=C1c2c(O)cccc2C2(Oc3cccc4cccc(c34)O2)C2OC12 (stereo not drawn) | 20.1 µM
CCN(Cc1ccccc1)S(=O)(=O)c1ccc(C(=O)Nc2ccc3c(c2)OCCO3)cc1 | 5.98 µM
O=C(CSc1nnnn1-c1ccccc1)Nc1ccccc1 | 39.8 µM
COc1ccc(C(=O)NCCc2nnc3ccc(SCC(=O)NCc4ccc(F)cc4)nn23)cc1 | 15.7 µM
Clc1cccc(N2CCN(c3ncnc4nc[nH]c34)CC2)c1 | 39.5 µM
CCOC(=O)Nc1ccc(N2CCn3c(nc4ccccc43)C2)cc1OC | > 50 µM (inactive)

Structure (SMILES) | IC50
CCCCN(C)C(=O)c1cc2c(=O)n3cccc(C)c3nc2n1Cc1ccccc1 | > 50 µM (inactive)
COc1ccc2c(c1)CCc1c(C(=O)NCc3cccnc3)noc1-2 | 20.3 µM
Cc1c(CC(=O)Nc2nn[nH]n2)c(=O)oc2cc3c(cc12)CCC1(CCCCC1)O3 | > 50 µM (inactive)
CC(=O)N1CCc2cc(S(=O)(=O)NCCC(=O)Nc3cccc(C)c3C)ccc21 | 34 µM
Cc1ccc(C(C)C)cc1OCCOCCN1CCNCC1 | 19.8 µM
COC(=O)c1sccc1NC(=O)COc1ccsc1C(=O)OC | 25.6 µM
COc1ccc(NC(=O)CSc2oc(-c3ccc(C)cc3)nc2S(=O)(=O)c2ccc(Br)cc2)c(OC)c1 | > 50 µM (inactive)
COc1ccc(/C=C/C(=O)Nc2cccc(S(=O)(=O)Nc3ccccc3Cl)c2)c(OC)c1 | 21.4 µM
COc1ccc(NC(=O)c2nc3n(n2)-c2ccccc2S(=O)(=O)N3)cn1 | > 50 µM (inactive)
COc1ccc(C2SCC(=O)Nc3c2c(=O)[nH]n3C2CCCCC2)cc1 (stereo not drawn) | 24.6 µM
c1ccc2c(c1)ccc1nnc(-c3ccc4c(c3)OCO4)n12 | > 50 µM (inactive)
O=C(Cc1ccccc1F)N1CCC2(CC1)CC1(CO2)Nc2ccccc2-n2cccc21 (stereo not drawn) | > 50 µM (inactive)
Nc1c(C(=O)c2cccs2)oc2nc(-c3ccccc3)cc(-c3ccco3)c12 | > 50 µM (inactive)
COc1ccccc1NC(=O)c1nn(-c2cccc(F)c2)c(OC)cc1=O | 25.1 µM
Cc1ccc2[nH]c(=O)c(CN(CC3CCCO3)S(=O)(=O)c3ccccc3)cc2c1 (stereo not drawn) | 24.7 µM
COc1ccc(OC)c(NC(=O)C2Oc3ccccc3NC2=O)c1 (stereo not drawn) | 8.5 µM
Cc1ccc(CN2C(=O)c3cc4ccccc4n3CC2(C)C(=O)NCc2ccccc2)o1 (stereo not drawn) | 44.6 µM
COc1cccc2cc(C(=O)Nc3nc(-c4ccncc4)cs3)oc12 | 0.647 µM
CN(C)S(=O)(=O)c1ccc(N2CCCC2)c(C(=O)Nc2ccc(-c3cn4ccsc4n3)cc2)c1 | > 50 µM (inactive)
CCn1c(=O)c(=O)[nH]c2cc(C(=O)Nc3cccc(-c4csc(C)n4)c3)ccc21 | 1.99 µM
Cc1cc(Cl)ccc1NC(=O)c1cc(-c2cccnc2)n[nH]1 | > 50 µM (inactive)
CCCc1nc2c(sc3nc4c(cc32)COC(C)(C)C4)c(=O)n1CC(=O)Nc1ccccc1C | 21.9 µM
O=C(Nc1nc2c(s1)COCC2)c1cc(-c2ccco2)[nH]n1 | > 50 µM (inactive)
Cc1cc(=O)n(CC(=O)NCc2ccccc2F)c2c1c(C)nn2-c1ccccc1 | 18.5 µM
